Here are results for two compounds from patent US6375979B2 (Somerset Pharmaceuticals, Inc., priority 1995, dated 2002).

The term inhibition denotes how much of the control response was suppressed.

“And” between values parts separate entries of the source, which are not always exact repeats. Equal entries are not always repeated.

Test [1] concerns the target T1, MAO-B (Cavia porcellus, UniProt P58028).
T1 construct: by human platelets and/or guinea pig hippocampal homogenates; from tissue; host or cells: guinea pig hippocampus homogenate
T1 sequence (P58028 1-520): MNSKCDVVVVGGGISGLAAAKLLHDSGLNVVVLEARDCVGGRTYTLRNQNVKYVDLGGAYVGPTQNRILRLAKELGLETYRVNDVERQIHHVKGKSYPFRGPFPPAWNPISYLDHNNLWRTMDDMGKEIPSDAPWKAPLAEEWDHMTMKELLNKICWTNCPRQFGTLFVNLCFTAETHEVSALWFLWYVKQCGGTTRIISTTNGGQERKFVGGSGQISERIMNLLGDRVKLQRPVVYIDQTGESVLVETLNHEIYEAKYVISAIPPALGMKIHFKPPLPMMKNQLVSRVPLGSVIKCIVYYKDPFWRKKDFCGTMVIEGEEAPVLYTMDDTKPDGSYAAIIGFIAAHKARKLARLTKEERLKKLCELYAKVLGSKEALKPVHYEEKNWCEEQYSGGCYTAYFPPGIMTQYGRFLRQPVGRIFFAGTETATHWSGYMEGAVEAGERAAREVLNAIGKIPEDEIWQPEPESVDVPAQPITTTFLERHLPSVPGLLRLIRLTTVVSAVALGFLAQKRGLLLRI
Description: MAO-B inhibition in guinea pig hippocampal homogenates in vitro. The class given is biochemical. To be noted: read-out: MAO-B % Inhibition x ± SEM. An excerpt:
Human platelet MAO is comprised exclusively of the type-B isoform of the enzyme. […] The present study also examined the two enantiomers of DMS for inhibitory activity with respect to the MAO-A and MAO-B in guinea pig hippocampal tissue. Guinea pig brain tissue is an excellent animal model for studying brain dopamine metabolism, the enzyme kinetics of the multiple forms of MAO and the inhibitory properties of novel agents that interact with these enzymes. The multiple forms of MAO in this animal species show similar kinetic properties to those found in human brain tissue. Finally, the test agents were administered to guinea pigs and the extent to which they might act as inhibitors of brain MAO in vivo was assessed.
In vitro: The test system utilized the in vitro conversion of specific substrates of MAO-A (^14C-serotonin) and MAO-B (^14C-phenylethylamine) by human platelets and/or guinea pig hippocampal homogenates. […] A percent inhibition was calculated from these values.

Test [2] relates to cultured rat mesencephalic cells. Description: Medium change (glutamate receptor dependent) model of cell death: TH positive cells. To be noted: medium change model.
Description: In these experiments, cells were plated and allowed to stabilize for several days.
Test [3] deals with cultured rat mesencephalic cells exposed to NMDA. Nature of the test: NMDA model of cell death: TH immunochemistry. To be noted: 100 μM NMDA exposure.
Description: Rat mesencephalic cell cultures were exposed to 100 μM NMDA and incubated as described above in connection with FIG. 16.

`C#CCN[C@@H](C)Cc1ccccc1` (single isomer, unassigned) [S(+)DMS, ent-desmethylselegiline]: in test [1], the inhibition at 1 µM was 44.4 ± 6.4%.

Consider desmethylselegiline [R(−)DMS], for which the “TH Immunochemistry, % control, Mean” value is 123.9% in test [2] (0.5 μM); 132.1% in test [2] (5.0 μM); 144.9% in test [2] (50 μM); 97.3% in test [3] (0.5 μM); 136.1% in test [3] (5.0 μM); 165.9% in test [3] (50 μM). The “TH Immunochemistry, % control, individual cultures” value was 129.0% and 117.6% and 125.2% in test [2] (0.5 μM); 122.3% and 129.9% and 137.5% and 138.5% in test [2] (5.0 μM); 117.6% and 167.9% and 144.1% and 149.8% in test [2] (50 μM); 100.9% and 79.6% and 111.5% in test [3] (0.5 μM); 151.3% and 130.1% and 138.1% and 124.8% in test [3] (5.0 μM); 252.2% and 180.5% and 108.8% and 122.1% in test [3] (50 μM). For the same compound, the “TH Immunochemistry, cells/cm^2, Mean” value in test [2] (0.5 μM) was found to be 335.63 cells/cm^2; in test [2] (5.0 μM) it was 348.13 cells/cm^2; in test [2] (50 μM) it was 381.88 cells/cm^2; in test [3] (0.5 μM), 91.67 cells/cm^2; in test [3] (5.0 μM), 128.13 cells/cm^2; in test [3] (50 μM) it was 156.25 cells/cm^2. The “TH Immunochemistry, cells/cm^2, individual cultures” value in test [2] (0.5 μM) is 340.0 cells/cm^2 and 310.0 cells/cm^2 and 330.0 cells/cm^2 and 362.5 cells/cm^2; in test [2] (5.0 μM), 322.5 cells/cm^2 and 342.5 cells/cm^2 and 362.5 cells/cm^2 and 365.0 cells/cm^2; in test [2] (50 μM), 310.0 cells/cm^2 and 442.5 cells/cm^2 and 380.0 cells/cm^2 and 395.0 cells/cm^2; in test [3] (0.5 μM), 95.0 cells/cm^2 and 75.0 cells/cm^2 and 105.0 cells/cm^2; in test [3] (5.0 μM) it was 142.5 cells/cm^2 and 122.5 cells/cm^2 and 130.0 cells/cm^2 and 117.5 cells/cm^2; in test [3] (50 μM), 237.5 cells/cm^2 and 170.0 cells/cm^2 and 102.5 cells/cm^2 and 115.0 cells/cm^2.
